# Test results as given in PubChem BioAssay (NCI).
# Structures can show the parent of a compound that is named as a salt.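 Compound exposure: 48 hours, 5 concentrations, 96-well plates. TGI: concentration producing complete growth inhibition.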 *1 amine or outer side, *2 acyl side, *3 side chain or, on linkers, in order; H or OH if unused. Where a SMILES comes first, the peptide text is derived from it. [ ]: non-standard residue; d: D form. The star is where a group is joined. X31 = CC(=O)N(C)SCC(N[*:1])C(=O)[*:2]; X47 = CC(=O)N(C)SCC(N*)/C(O)=N\O; Cbz = O=C(OCc1ccccc1)*; Tfa = O=C(C(F)(F)F)*; Bn = c1ccc(C*)cc1; For = O=C*
# Legend:
# Experiment in all cases: NCI anticancer screen, dose series, 48 h
# 786-0 renal = tested on: 786-0 renal
# A549 NSCLC = tested on: A549 NSCLC
# BT-549 breast = tested on: BT-549 breast
# CAKI-1 renal = tested on: CAKI-1 renal
# EKVX NSCLC = tested on: EKVX NSCLC
# HS 578T breast = tested on: HS 578T breast
# LOX IMVI melanoma = tested on: LOX IMVI melanoma
# MDA-MB-435 = tested on: MDA-MB-435
# NCI/ADR-RES ovarian = tested on: NCI/ADR-RES ovarian
# RXF 393 renal = tested on: RXF 393 renal
# SK-MEL-28 melanoma = tested on: SK-MEL-28 melanoma
# SK-MEL-5 melanoma = tested on: SK-MEL-5 melanoma
# SN12C renal = tested on: SN12C renal
# SNB-19 CNS = tested on: SNB-19 CNS
# T-47D breast = tested on: T-47D breast
# UO-31 renal = tested on: UO-31 renal
# HL-60(TB) leukemia = tested on: HL-60(TB) leukemia
# TK-10 renal = tested on: TK-10 renal
# RPMI-8226 leukemia = tested on: RPMI-8226 leukemia
Structure (SMILES),TGI (786-0 renal),TGI (A549 NSCLC),TGI (BT-549 breast),TGI (CAKI-1 renal),TGI (EKVX NSCLC),TGI (HS 578T breast),TGI (LOX IMVI melanoma),TGI (MDA-MB-435),TGI (NCI/ADR-RES ovarian),TGI (RXF 393 renal),TGI (SK-MEL-28 melanoma),TGI (SK-MEL-5 melanoma),TGI (SN12C renal),TGI (SNB-19 CNS),TGI (T-47D breast),TGI (UO-31 renal),TGI (HL-60(TB) leukemia),TGI (TK-10 renal),TGI (RPMI-8226 leukemia)
O=C(OCc1ccccc1CN1CCOCC1)c1cccc(Br)c1,> 100 µM,> 100 µM,> 100 µM,64.6 µM,> 100 µM,> 100 µM,> 100 µM,> 100 µM,79.8 µM,> 100 µM,> 100 µM,33.3 µM,> 100 µM,> 100 µM,49.6 µM,> 100 µM,–,–,–
O=C1c2c(Cl)c(Cl)c(Cl)c(Cl)c2C(=O)N1CCN(c1c(Cl)ssc1=O)c1c(Cl)ssc1=O,32.8 µM,> 100 µM,> 100 µM,34.7 µM,88.6 µM,> 100 µM,48.5 µM,45.4 µM,> 100 µM,34.4 µM,> 100 µM,> 100 µM,47.7 µM,> 100 µM,44.5 µM,32.3 µM,> 100 µM,33.5 µM,–
CCCCCCCC1C(C)c2c([nH]c3ccccc23)C2C(=O)N(c3ccc(OC)cc3)C(=O)C21 (stereo not drawn),3.28 µM,5.33 µM,6.56 µM,> 8.37 µM,> 10 µM,4.88 µM,–,> 8.39 µM,3.02 µM,8.14 µM,> 10 µM,> 10 µM,> 5.95 µM,9.92 µM,> 10 µM,6.86 µM,3.73 µM,5.37 µM,> 10 µM
COc1cc(C=O)ccc1Oc1nnnn1-c1ccccc1,> 100 µM,> 100 µM,> 100 µM,85.3 µM,> 100 µM,> 100 µM,> 100 µM,> 100 µM,> 100 µM,> 100 µM,> 100 µM,59.2 µM,> 100 µM,> 100 µM,58 µM,> 100 µM,–,> 100 µM,98.2 µM
COc1ccc(/C=C2\CCCC(CN(C)C)C2=O)cc1 (stereo not drawn),3.47 µM,33.9 µM,3.9 µM,3.15 µM,24.8 µM,10.9 µM,4 µM,6.96 µM,6.56 µM,–,3.77 µM,28.8 µM,7.12 µM,18 µM,7.72 µM,8.57 µM,4.62 µM,9.45 µM,0.433 µM
CCOC(=O)c1ccc(Nc2cnc3cc(C(F)(F)F)ccc3n2)cc1,> 100 µM,> 100 µM,> 100 µM,> 100 µM,> 100 µM,> 100 µM,> 100 µM,> 100 µM,> 100 µM,–,> 100 µM,> 100 µM,> 100 µM,–,> 100 µM,> 100 µM,> 100 µM,> 100 µM,> 100 µM
CC(=O)Nc1ccc(Nc2cc(=O)[nH]c(=O)[nH]2)cc1,> 100 µM,> 100 µM,> 100 µM,–,> 100 µM,> 100 µM,> 100 µM,> 100 µM,> 100 µM,> 100 µM,> 100 µM,> 100 µM,> 100 µM,> 100 µM,> 100 µM,> 100 µM,> 100 µM,> 100 µM,> 100 µM
Cc1ccc(-c2nc(C)c(C(=O)Nc3ccc(Cl)cc3)s2)cc1,29.3 µM,> 100 µM,78.2 µM,40.8 µM,> 100 µM,62.1 µM,> 100 µM,> 100 µM,> 100 µM,–,> 100 µM,41.7 µM,> 100 µM,43.2 µM,> 100 µM,49.3 µM,> 100 µM,38.9 µM,> 100 µM
COc1cc2c[n+](C)c3c4cc(OC)c(OC)cc4c(OC)cc3c2cc1OC,> 74.6 µM,> 100 µM,57 µM,> 100 µM,> 100 µM,12.6 µM,> 76.5 µM,> 60.4 µM,> 100 µM,> 100 µM,> 81.9 µM,14.9 µM,–,> 100 µM,12.2 µM,> 100 µM,–,> 100 µM,> 100 µM
COc1cc(C2SC(N)=Nc3c2c(C)nn3C(=O)c2ccccc2O)cc(OC)c1OC (stereo not drawn),> 10 µM,> 10 µM,> 10 µM,> 10 µM,> 10 µM,8.53 µM,> 10 µM,> 10 µM,> 10 µM,> 10 µM,> 10 µM,> 10 µM,> 10 µM,> 10 µM,> 10 µM,> 10 µM,–,> 10 µM,> 10 µM
O=C1/C(=C/c2ccccc2)CCCC1CN1CCCCC1 (stereo not drawn),4.26 µM,34.9 µM,8.91 µM,3.2 µM,28.8 µM,16.9 µM,3.3 µM,4.26 µM,13 µM,3.76 µM,3.77 µM,15.6 µM,18.5 µM,29.1 µM,3.92 µM,3.82 µM,–,8.02 µM,> 100 µM
O=C(O)CC(NC(=O)C(F)(F)F)C(=O)NC(Cc1ccc(O)cc1)C(=O)O (stereo not drawn) (Tfa-Asp-Tyr-OH; configuration not given here),> 50 µM,> 50 µM,> 50 µM,> 50 µM,> 50 µM,> 50 µM,–,> 50 µM,> 50 µM,> 50 µM,> 50 µM,> 50 µM,> 50 µM,> 50 µM,> 50 µM,> 50 µM,–,> 50 µM,> 50 µM
Cc1ccc(S(=O)(=O)N2CCCN(S(=O)(=O)c3ccc(C)cc3)CCN(S(=O)(=O)c3ccc(C)cc3)CCCSCC2)cc1,> 100 µM,> 100 µM,> 100 µM,–,> 100 µM,> 100 µM,–,> 100 µM,> 100 µM,> 100 µM,> 100 µM,> 100 µM,> 100 µM,> 100 µM,> 100 µM,> 100 µM,> 100 µM,–,> 100 µM
CC(=O)ON(C(C)=O)c1ccc(-c2nc3ccccc3s2)cc1,> 57.5 µM,> 79 µM,> 100 µM,–,65.2 µM,> 88 µM,> 66.7 µM,> 60.3 µM,39.9 µM,> 79.3 µM,> 70.8 µM,89.9 µM,> 100 µM,> 100 µM,> 66.5 µM,33.2 µM,–,> 100 µM,55.4 µM
CC(C)(C)OC(=O)NCCCCC(N)C(N)=O (stereo not drawn),> 100 µM,> 100 µM,> 100 µM,> 100 µM,> 100 µM,> 100 µM,> 100 µM,> 100 µM,> 100 µM,> 100 µM,> 100 µM,> 100 µM,> 100 µM,> 100 µM,> 100 µM,> 100 µM,–,> 100 µM,> 100 µM
COc1ccc(Oc2cccc(/C=C3/C(=O)Nc4ccccc43)c2)cc1,24.1 µM,> 100 µM,29.5 µM,20.9 µM,25.1 µM,45.8 µM,–,13.8 µM,17.8 µM,15.7 µM,23.6 µM,11.3 µM,22.8 µM,19.1 µM,9.75 µM,20 µM,12.5 µM,29.9 µM,–
CC(=O)N(C)SCC(NC(=O)C(Cc1ccccc1)NC(=O)OCc1ccccc1)C(=O)NC(Cc1ccccc1)C(=O)NC(Cc1cn(C=O)c2ccccc12)C(=O)NC(CCCCNC(=O)OCc1ccccc1)C(=O)NC(C(=O)NC(CSN(C)C(C)=O)/C(O)=N\O)C(C)OCc1ccccc1 (stereo not drawn) (Cbz-F[X31]FW(For)K(Cbz)T(Bn)-X47; configuration not given here),> 100 µM,> 100 µM,> 100 µM,–,> 100 µM,> 100 µM,> 100 µM,> 100 µM,> 100 µM,> 100 µM,> 100 µM,> 100 µM,> 100 µM,> 100 µM,> 100 µM,> 100 µM,> 100 µM,> 100 µM,> 100 µM
CC1(C)[C@H](C(=O)O)N2C(=O)[C@@H](NS(=O)(=O)c3ccc([N+](=O)[O-])cc3)[C@H]2S1(=O)=O,> 100 µM,> 100 µM,> 100 µM,> 100 µM,> 100 µM,> 100 µM,> 100 µM,> 100 µM,> 100 µM,> 100 µM,> 100 µM,> 100 µM,> 100 µM,> 100 µM,> 100 µM,> 100 µM,> 100 µM,> 100 µM,–
C=C(C)C(=O)O[C@H]1C/C(CO)=C/CCC(=C)C(OC(C)=O)[C@H]2OC(=O)C(=C)[C@H]12 (stereo partly drawn),12.8 µM,55.8 µM,12.1 µM,21.5 µM,–,> 100 µM,27 µM,17.8 µM,61.2 µM,–,20.6 µM,28.3 µM,30.8 µM,> 100 µM,28 µM,17.7 µM,–,–,19.3 µM
CCCCCC(C)(C)CCC(=O)OC1OC(COC2OC(COC3OC(CO)C(O)C(O)C3O)C(O)C(O)C2O)C(O)C(O)C1O (stereo not drawn),> 100 µM,> 100 µM,> 100 µM,–,> 100 µM,> 100 µM,> 100 µM,> 100 µM,> 100 µM,> 100 µM,–,> 100 µM,> 100 µM,> 100 µM,> 100 µM,> 100 µM,> 100 µM,> 100 µM,> 100 µM
C/C=C/[C@H]1O[C@@](O)([C@@H](C)[C@H](O)[C@H](C)[C@H]2OC(=O)/C(OC)=C/C(C)=C/[C@@H](C)[C@@H](O)[C@@H](CC)[C@@H](O)[C@H](C)C/C(C)=C/C=C/[C@@H]2OC)C[C@H](OC2CC(O)C(O)C(C)O2)[C@@H]1C (stereo partly drawn),2.92 µM,12.3 µM,14.1 µM,11.9 µM,11.8 µM,17.3 µM,–,8.87 µM,17.8 µM,23.2 µM,14.7 µM,0.0828 µM,18.1 µM,15.7 µM,0.336 µM,0.29 µM,< 0.0075 µM,18.9 µM,< 0.0075 µM
COc1cc(Cc2cc3c(c(C(=O)O)c2Br)OCO3)cc(OC)c1OC,> 100 µM,> 100 µM,> 100 µM,> 100 µM,> 100 µM,> 100 µM,> 100 µM,> 100 µM,> 100 µM,–,> 100 µM,> 100 µM,> 100 µM,> 100 µM,> 100 µM,> 100 µM,62.2 µM,> 100 µM,–
CCOC(=O)CN1C(=O)c2c(c(C)n(-c3ccccc3)c2C)C1=O,> 100 µM,> 100 µM,> 100 µM,> 100 µM,> 100 µM,> 100 µM,–,> 100 µM,> 100 µM,> 100 µM,> 100 µM,> 100 µM,> 100 µM,> 100 µM,> 100 µM,> 100 µM,> 100 µM,> 100 µM,> 100 µM
NC(=O)c1nnc2ccc(F)cc2c1N,> 100 µM,> 100 µM,> 100 µM,> 100 µM,> 100 µM,> 100 µM,> 100 µM,> 100 µM,> 100 µM,–,–,> 100 µM,> 100 µM,> 100 µM,> 100 µM,> 100 µM,> 100 µM,> 100 µM,> 100 µM
Cc1cc(N(CCC#N)CCC#N)ccc1/C(N=Nc1ccc(Cl)cc1)=N\NC(=O)c1cc(Cl)ccc1O,> 100 µM,> 100 µM,> 100 µM,> 100 µM,> 100 µM,56.2 µM,–,> 100 µM,> 100 µM,74.5 µM,–,> 100 µM,> 100 µM,75.4 µM,> 100 µM,> 100 µM,–,> 100 µM,> 100 µM
